# Values of other authors as cited in US4925674A (hiMedics, Inc., priority 1988, dated 1990).
# Settings: well known
compound,measurement,value
"CC1(C)S[C@@H]2[C@H](NC(=O)[C@H](N)c3ccc(O)cc3)C(=O)N2[C@H]1C(=O)O [Amoxicillin, amoxicillin]",dose-related gastrointestinal upsets,"dose-related gastrointestinal upsets (epigastric distress, nausea, vomiting, and especially diarrhea) occur commonly"
